These results are taken from PMC10357944 (RSC Medicinal Chemistry, 2023).

Bounds are passed on as bounds.

For one data set, the system named is Leishmania (L.) infantum intracellular amastigotes. Description: Anti-L. (L.) infantum activity in vitro, intracellular amastigotes in peritoneal macrophages, infection index. The data set is classed as cell-based. Particulars: L. (L.) infantum intracellular amastigotes in BALB/c peritoneal macrophages, 96 h treatment, NA = inactive. Here is the method:
The synthesized compounds were evaluated for their anti-L. (L.) infantum activity on intracellular amastigotes following 96 h treatment, with standard drug miltefosine used as a control. […] Leishmania (L.) infantum (MHOM/BR/1972/LD) amastigotes were obtained by differential centrifugation from golden hamsters (Mesocricetus auratus) spleens with 60–70 days of infection and the number of parasites was determined by the Stauber method.[18] Murine conjunctive fibroblasts NCTC clone 929 (ATCC) were maintained in RPMI-1640 medium supplemented with 10% FBS at pH 7.2 and 37 °C in a humidified incubator with 5% CO2. Peritoneal macrophages were by obtained by washing the peritoneal cavity of BALB/c mice with RPMI-1640 medium supplemented with 10% FBS, pH 7.2 and maintained at 37 °C in a humidified incubator with 5% CO2. Peritoneal macrophages (1 × 10^5/well) were added in 16-well slide chambers (NUNC) and incubated overnight at 37 °C with 5% CO2. Subsequently, the cells were infected with L. (L.) infantum amastigotes (10 : 1 amastigotes/macrophage) for 24 h, treated with compounds serially diluted (6.25 to 50 μM) and incubated for 96 h at 37 °C with 5% CO2. Miltefosine was used as standard drug and untreated cells as a negative control. Slides were fixed with methanol, stained with Giemsa and observed under a light microscope.[19] […] The determination of CC50 and IC50 values was performed by sigmoid dose–response curves using the Graph Pad Prism 5 software. The samples were tested in duplicate and the assays were reproduced at least twice.
With `C=CCc1cc(OC)c(O)c(Oc2ccc(CN3CCOCC3)cc2OC)c1` [Compound 31], the “IC50 (μM) ± SD” value was “no anti-parasitic activity”.

Take `CCCc1ccc(OCc2ccc(OC)cc2)c(Oc2ccc(CN3CCOCC3)cc2OC)c1` [Compound 35]: the “IC50 (μM) ± SD” value is “inactive”.

`C=CCc1cc(OC)c(O)c(Oc2ccc(CN3CCCC3)cc2OC)c1` [Compound 32]: the “IC50 (μM) ± SD” value was “no anti-parasitic activity”.

Consider `CCCc1cc(OC)c(OCc2ccc(OC)cc2)c(Oc2ccc(CN3CCCCC3)cc2OC)c1` [Compound 26], for which the IC50 was 3.7 ± 0.5 µM.

On to `C=CCc1ccc(Oc2cc(CC=C)cc(OC)c2OCc2ccc(OC)cc2)c(OC)c1` [Compound 1], for which the “IC50 (μM) ± SD” value was “inactive”.

The data set is the same for the next values; noted with them: Peritoneal macrophage, 96 h, L. (L.) infantum intracellular amastigotes in BALB/c peritoneal macrophages, 96 h treatment, NA = inactive.
On to `C=CCc1cc(OC)c(OC(C)=O)c(Oc2ccccc2OC)c1` [Compound 11], for which the concentration for half-maximal inhibition (IC50) is 32.7 ± 5 µM.

With `CCCc1ccc(Oc2cc(CN3CCOCC3)cc(OC)c2OCc2ccc(C(F)(F)F)cc2)c(OC)c1` [Compound 29], the 50% inhibitory concentration (IC50) turned out to be 13.2 ± 2.1 µM.

Consider `CCCc1cc(OC)c(OCc2ccc(OC)cc2)c(Oc2ccc(CN3CCOCC3)cc2OC)c1` [Compound 25], for which it took 7.7 ± 0.8 µM to reach half-maximal inhibition (IC50).

Turning to `C=CCc1cc(OC)c(OCc2ccc(OC)cc2)c(Oc2ccc(CN3CCOCC3)cc2OC)c1` [Compound 24], the IC50 was found to be 9.7 ± 2 µM.

In the case of `CCCc1ccc(Oc2cc(CN3CCCCC3)cc(OC)c2OCc2ccc(OC)cc2)cc1` [Compound 33], the IC50 was around 3 µM.

`CCCCCCCCCCCCCCCCOP(=O)([O-])OCC[N+](C)(C)C` [Milt., miltefosine, reference compound] came in with an IC50 of 6.5 ± 3 µM.

`C=CCc1ccc(Oc2cc(CC=C)cc(OC)c2OCCN2CCOCC2)c(OC)c1` [Compound 5] registered an IC50 of 9.6 ± 3.6 µM.

In turn, `COc1ccc(COc2c(OC)cc(CN3CCOCC3)cc2Oc2ccc(CN3CCOCC3)cc2OC)cc1` [Compound 27] yielded an IC50 of 27.8 ± 7.4 µM.

Consider `C=CCc1cc(OC)c(OCc2ccc(OC)cc2)c(Oc2ccccc2OC)c1` [Compound 9], for which the midpoint of inhibition, the IC50, lay at 24.2 ± 18.2 µM.

`C=CCc1ccc(Oc2cc(CC=C)cc(OC)c2OCC(=O)N2CCCC2)c(OC)c1` [Compound 6] had an IC50 of 20.3 ± 5.9 µM.

`CCCc1ccc(Oc2cc(CN3CCOCC3)cc(OC)c2OCc2cc(OC)c(OC)c(OC)c2)c(OC)c1` [Compound 30] gave a half-maximal inhibitory concentration (IC50) of 26.3 ± 3.2 µM.

Molecule `CCCc1cc(OC)c(OCc2ccc(OC)cc2)c(Oc2ccc(CN3CCCCC3)cc2OC)c1` [Compound 26] yielded an IC50 of around 3 µM.

On to `CCCc1ccc(Oc2cc(CN3CCOCC3)cc(OC)c2OCc2ccc(OC)cc2)cc1` [Compound 34], for which the IC50 was 15.3 ± 1.9 µM.

On to `C=CCc1ccc(Oc2cc(CC=C)cc(OC)c2OCCN2CCCC2)c(OC)c1` [Compound 4], for which the IC50 was 4.1 ± 1.1 µM.

`CCCc1ccc(Oc2cc(CN3CCOCC3)cc(OC)c2OCc2ccc(OC)cc2)c(OC)c1` [Compound 28]: the 50% inhibitory concentration (IC50) was determined as 16.4 ± 4.3 µM.

System in the next data set: not listed separately
Kind of data set: Mammalian toxicity in vitro, MTT colorimetric method. The class given is cell-based, Murine. Particulars: mouse, NCTC clone 929 fibroblasts, pH 7.2, NCTC clone 929 cells, up to 200 μM. The method, then:
The synthesized compounds were evaluated for their anti-L. (L.) infantum activity on intracellular amastigotes following 96 h treatment, with standard drug miltefosine used as a control. […] Leishmania (L.) infantum (MHOM/BR/1972/LD) amastigotes were obtained by differential centrifugation from golden hamsters (Mesocricetus auratus) spleens with 60–70 days of infection and the number of parasites was determined by the Stauber method.[18] Murine conjunctive fibroblasts NCTC clone 929 (ATCC) were maintained in RPMI-1640 medium supplemented with 10% FBS at pH 7.2 and 37 °C in a humidified incubator with 5% CO2. Peritoneal macrophages were by obtained by washing the peritoneal cavity of BALB/c mice with RPMI-1640 medium supplemented with 10% FBS, pH 7.2 and maintained at 37 °C in a humidified incubator with 5% CO2. NCTC cells (6 × 10^4/well) were added to 96-well plates and maintained at 37 °C in a 5% CO2 humidified incubator for 96 h with compounds serially diluted (1.6 to 200 μM). […] The determination of CC50 and IC50 values was performed by sigmoid dose–response curves using the Graph Pad Prism 5 software. The samples were tested in duplicate and the assays were reproduced at least twice.
For the molecule `C=CCc1cc(OC)c(OC(C)=O)c(Oc2ccccc2OC)c1` [Compound 11], the cytotoxic concentration (CC50) at 96 h is above 200 µM.

As to `CCCc1ccc(Oc2cc(CN3CCOCC3)cc(OC)c2OCc2ccc(C(F)(F)F)cc2)c(OC)c1` [Compound 29], the half-maximal cytotoxic concentration (CC50) at 96 h was above 200 µM.

`C=CCc1ccc(O)c(Oc2ccc(CC=C)cc2OC)c1` [Compound 39] gave a CC50 at 96 h of 129 ± 5.2 µM.

Molecule `C=CCc1ccc(Oc2cccc(OC)c2OC)c(OC)c1` [Compound 14] had a CC50 at 96 h above 200 µM.

The molecule `C=CCc1ccc(Oc2cc(CC=C)cc(OC)c2OCc2ccc(OC)cc2)cc1` [Compound 36] gave a CC50 at 96 h above 200 µM.

In the case of `C=CCc1ccc(Oc2cc(CC=C)ccc2OCc2ccc(OC)cc2)c(OC)c1` [Compound 38], the CC50 at 96 h was above 200 µM.

`C=CCc1cc(OC)c(OC)c(Oc2ccccc2OC)c1` [Compound 13]: the cytotoxic concentration (CC50) at 96 h is above 200 µM.

With `CCCc1cc(OC)c(OCc2ccc(OC)cc2)c(Oc2ccc(CN3CCOCC3)cc2OC)c1` [Compound 25], half-maximal cytotoxicity (CC50 at 96 h) was put at 74.4 ± 4.4 µM.

Molecule `C=CCc1cc(OC)c(OCc2ccc(OC)cc2)c(Oc2ccc(CN3CCOCC3)cc2OC)c1` [Compound 24] registered a CC50 at 96 h above 200 µM.

As for `C=CCc1ccc(Oc2cc(CC=C)cc(OC)c2OCC(=O)N2CCOCC2)c(OC)c1` [Compound 7], the CC50 at 96 h is 112 ± 8.2 µM.

Consider `CCCc1ccc(Oc2cc(CCC)cc(OC)c2OCc2ccc(OC)cc2)c(OC)c1` [Compound 22], for which the CC50 at 96 h was above 200 µM.

For the molecule `C=CCc1cc(OC)c(O)c(Oc2ccccc2OC)c1` [Compound 15], the CC50 at 96 h amounted to 31.6 ± 11.3 µM.

Regarding `C=CCc1cc(OC)c(O)c(Oc2ccc(CN3CCOCC3)cc2OC)c1` [Compound 31], the CC50 at 96 h worked out at 51.4 ± 4.7 µM.

`C=CCc1ccc(Oc2cc(CC=C)cc(OC)c2O)cc1` [Compound 37] came in with a 50% cytotoxic concentration (CC50) at 96 h of 123 ± 9.4 µM.

On to `CCCc1ccc(Oc2cc(CN3CCCCC3)cc(OC)c2OCc2ccc(OC)cc2)cc1` [Compound 33], for which the CC50 at 96 h worked out at 22.7 ± 0.9 µM.

Consider `CCCCCCCCCCCCCCCCOP(=O)([O-])OCC[N+](C)(C)C` [Milt., miltefosine, reference compound], for which the CC50 at 96 h amounted to 120 ± 4.2 µM.

In turn, `C=CCc1ccc(Oc2cc(CC=C)cc(OC)c2OCCN2CCOCC2)c(OC)c1` [Compound 5] registered a CC50 at 96 h of 63.7 ± 0.2 µM.

`C=CCc1ccc(Oc2cccc(OC)c2OCc2ccc(OC)cc2)c(OC)c1` [Compound 10] came in with a CC50 at 96 h above 200 µM.

`COc1ccc(COc2c(OC)cc(CN3CCOCC3)cc2Oc2ccc(CN3CCOCC3)cc2OC)cc1` [Compound 27]: the half-maximal cytotoxic concentration (CC50) at 96 h worked out at 74.4 ± 5.8 µM.

`C=CCc1cc(OC)c(OCc2ccc(OC)cc2)c(Oc2ccccc2OC)c1` [Compound 9] showed a CC50 at 96 h above 200 µM.

In turn, `C=CCc1ccc(Oc2cc(CCC)cc(OC)c2OCc2ccc(OC)cc2)c(OC)c1` [Compound 21] returned a CC50 at 96 h above 200 µM.

In turn, `CCCc1ccc(OCc2ccc(OC)cc2)c(Oc2ccc(CN3CCOCC3)cc2OC)c1` [Compound 35] gave a CC50 at 96 h of 33.8 ± 4.9 µM.

For the molecule `C=CCc1ccc(Oc2cccc(OC)c2O)c(OC)c1` [Compound 16], the CC50 at 96 h is above 200 µM.

The molecule `C=CCc1ccc(Oc2cc(CC=C)cc(OC)c2OCC(=O)N2CCCC2)c(OC)c1` [Compound 6] showed a CC50 at 96 h of 52.9 ± 15.2 µM.

In turn, `CCCc1ccc(Oc2cc(CN3CCOCC3)cc(OC)c2OCc2cc(OC)c(OC)c(OC)c2)c(OC)c1` [Compound 30] yielded a CC50 at 96 h above 200 µM.

`C=CCc1cc(OC)c(O)c(Oc2ccc(CCC)cc2OC)c1` [Compound 17] displayed a CC50 at 96 h of 42 ± 3.8 µM.

The molecule `C=CCc1ccc(Oc2cc(CCC)cc(OC)c2O)c(OC)c1` [Compound 18] yielded a CC50 at 96 h of 14.2 ± 0.1 µM. This CC50 at 96 h is about 3-fold lower than that of the molecule before.

For the molecule `C=CCc1cc(OC)c(OC)c(Oc2ccc(CCC)cc2OC)c1` [Compound 19], the CC50 at 96 h is above 200 µM.

Take `C=CCc1cc(OC)c(OCc2ccc(OC)cc2)c(Oc2ccc(CCC)cc2OC)c1` [Compound 20]: the CC50 at 96 h was above 200 µM.

The molecule `C=CCc1ccc(Oc2cccc(OC)c2OC(C)=O)c(OC)c1` [Compound 12] showed a CC50 at 96 h above 200 µM.

Consider `C=CCc1cc(OC)c(O)c(Oc2ccc(CN3CCCC3)cc2OC)c1` [Compound 32], for which the CC50 at 96 h was determined as 43.3 ± 5.3 µM.

The molecule `CCCc1cc(OC)c(OCc2ccc(OC)cc2)c(Oc2ccc(CN3CCCCC3)cc2OC)c1` [Compound 26] came in with a CC50 at 96 h of 14.5 ± 0.2 µM.

With `C=CCc1ccc(Oc2cc(CC=C)cc(OC)c2OCOC)c(OC)c1` [Compound 2], the CC50 at 96 h was above 200 µM.

In the case of `CCCc1ccc(Oc2cc(CN3CCOCC3)cc(OC)c2OCc2ccc(OC)cc2)cc1` [Compound 34], the CC50 at 96 h is above 200 µM.

The molecule `C=CCc1ccc(Oc2cc(CC=C)cc(OC)c2OCCN2CCCC2)c(OC)c1` [Compound 4] had a CC50 at 96 h of 24.9 ± 2.6 µM.

`C=CCc1ccc(Oc2cc(CC=C)cc(OC)c2OCc2ccc(OC)cc2)c(OC)c1` [Compound 1] came in with a CC50 at 96 h above 200 µM.

Consider `C=CCc1cc(OC)cc(Oc2ccc(CC=C)cc2OC)c1` [Compound 8], for which the 50% cytotoxic concentration (CC50) at 96 h is above 200 µM.

For `C=CCc1cc(OC)c(OCc2ccc(OC)cc2)c(Oc2ccc(CN3CCCC3)cc2OC)c1` [Compound 23], the midpoint of cytotoxicity, the CC50 at 96 h, lay at 6.2 ± 1.2 µM.

Regarding `CCCc1ccc(Oc2cc(CN3CCOCC3)cc(OC)c2OCc2ccc(OC)cc2)c(OC)c1` [Compound 28], the CC50 at 96 h is above 200 µM.

In a further data set the test system is T. cruzi trypomastigotes.
Assay: not given
On the set-up: method as in our previous work. To be noted: ref our previous work; cited from earlier work.
With `C=CCc1ccc(Oc2cc(CC=C)cc(OC)c2OCc2ccc(OC)cc2)c(OC)c1` [Compound 1], the “activity against T. cruzi trypomastigotes” value was 4.0 ± 1.4 µM.
